Measured values published in EP0863156A1, “Peptides useful as somatostatin antagonists” (American Cyanamid Company, priority 1997, dated 1998).

What was measured:
[1] = target: SRIF receptors expressed in S. cerevisiae (yeast) LY364 cells; assay: cell-based or functional assay
SSTR2 [2] = target: T1, SSTR2 (Rattus norvegicus, UniProt P30680); assay: cAMP accumulation in forskolin-stimulated GH4C1/SSTR2 cells (SPA radioimmunoassay); assay type: cell-based; set-up: expressed in transfected cells; host or cells: GH4C1 rat pituitary tumor cells; conditions: test peptide 2 µM; percent reversal of SSTR2 activation by SRIF or MK678; 0% = forskolin plus agonist, 100% = forskolin alone
Description: This is the basis of a common assay for SRIF agonists and antagonists, whereby SRIF agonists reduce artificially stimulated cAMP levels, and SRIF antagonists reverse the effect of SRIF. […] This increases the response to SRIF and provides a greater dynamic range for the measurement of SRIF antagonist activity.
Stimulation of cells. GH4C1/SSTR2 cells, grown in DMEM with 10% bovine serum, are released from a tissue culture dish by incubation for several minutes at 37° C with PBS containing 0.5 mM EDTA. Cells are washed in induction buffer (PBS containing 100 µM IBMX (an inhibitor of cAMP breakdown) and 2 mM CaCl2) at room temperature, and resuspended at 2 x 10^6/mL in induction buffer. Into each well of a 96-well tray are added 50 µL of a 2 X concentration of stimulants in induction buffer. […] To initiate stimulation of the cells, 50 µL (100,000) cells are added to each well, mixed by shaking 10 seconds on a plate shaker and placed at 37° C for 15 minutes. Stimulation is arrested and cells are lysed by adding 15 µL 0.33 N HCI to each well and incubating the plate for 30 minutes at 37° C. Samples are neutralized by addition of 15 µL 0.25 N NaOH/50 mM Hepes pH 7.4. Baseline cAMP levels are determined in samples with no added forskolin or SRIF, and each treatment is performed in triplicate.
cAMP assay. To measure accumulated cAMP in the samples, a radioimmunoassay is employed. The scintillation proximity assay (SPA, Amersham, Arlington Heights, IL) allows the rapid measurement of ^125I cAMP bound to a specific antibody without separating bound radioligand from free radioligand. Each of the following reagents (15 µL) are added per well in a 96-well tray: supernatants from the cell stimulation; ^125I cAMP; SPA beads conjugated to monkey anti-rabbit IgG antibodies; and rabbit anti-cAMP antibodies. For the standard curve, known amounts of cAMP (0.2 - 12.8 pmol) are added in place of cell supernatants. The 96-well tray is sealed, shaken at room temperature overnight and measured for bound radioligand in a MicroBeta liquid scintillation counter (Wallac, Gaithersburg. MD).
The intrinsic activity of an SRIF antagonist is the percent reversal of the SSTR2 activation by SRIF or MK678, wherein 0% is defined by cAMP levels in samples treated with forskolin plus SRIF or MK678 and 100% is the cAMP level measured after treatment with forskolin alone. Therefore, increased intrinsic activity of a test compound indicates increased antagonist activity of said test compound.
An inverse agonist is a compound that is not only a pure antagonist (i.e. lacking agonist activity), but also blocks the constitutive activity of an unoccupied receptor. One indication of inverse agonist activity is the ability of a SRIF antagonist to increase cAMP levels in the absence of added SRIF.

SRIF receptors = target: T2, SRIF receptors (Rattus norvegicus, UniProt P30680); assay: Yeast bioassay for SRIF antagonist activity (zone of growth inhibition of LY364 cells growing in response to SRIF); assay type: cell-based; conditions: Table III; diameter of zone of growth inhibition; 10 µL of 5 mg/mL on filter disk; S-14 10 nM
T2 construct: expressed in transfected cells; host or cells: Saccharomyces cerevisiae strain LY364
Description: Agar plates containing LY364 cells that are growing in the presence of added SRIF are the basis for a sensitive SRIF antagonist assay, whereby zones of growth inhibition result from the addition of SRIF antagonists to the surface of the agar plate (see L.A. Price, et al., Molecular and Cellular Biology, 15, 6188-6195, 1995, incorporated herein by reference).
In this assay, LY364 cells are grown overnight in 2 mL of synthetic complete(SC) medium (3.4 g/L YNB without amino acids and ammonium sulfate, 10 g/L ammonium sulfate and 1.4 g/L CSM-ura-trp) with glucose (2%) and without uracil and tryptophan. These cells are washed and cultured for 4 to 8 hours in 5 mL of SC medium with lactate (3%) and without uracil and tryptophan, and finally grown overnight in 5 mL of SC medium with galactose (2%) and without uracil and tryptophan. Molten (50° C) SC agar medium with galactose (2%) and without uracil, tryptophan and histidine is adjusted to pH 6.8 with KOH, mixed with 2 x 10^4 cells/mL and SRIF (S-14, 10 nM) and poured into square (20 x 20 cm) petri dishes. Sterile filter disks are placed on the surface of the agar, and saturated with 10 µL of water or DMSO containing 5 mg/mL test peptides. After three days, the plates display a uniform cloudy background of […] cells growing in response to the added SRIF. […] This zone is quantified by measuring its diameter (mm), which varies according to the potency of the SRIF antagonist. Those peptides or mixtures of peptides displaying the largest zones of inhibition are further characterized.
Values are compared among samples in the same experiment, as the degree of yeast growth varies somewhat from assay to assay. For the first five sample types, in which progressively less complex mixtures of peptides are found, this assay is the primary determining factor in choosing which samples form the basis of subsequent syntheses.
Plates are read after 3 days. Samples shown in Table I in bold type are chosen for further synthesis. In Table I, all amino acids are D-amino acids and dashes represent undefined amino acid residues.

SSTR2 [3] = target: T1, SSTR2; assay: cAMP accumulation in forskolin-stimulated GH4C1/SSTR2 cells (SPA radioimmunoassay); assay type: cell-based; set-up: expressed in transfected cells; host or cells: GH4C1 rat pituitary tumor cells (GH4C1/SSTR2); conditions: cAMP level, dose response of SRIF agonist + 10 µM peptide 1, forskolin stimulated cells
Excerpt: A primary effect of SRIF upon mammalian cells is the reduction of cyclic adenosine 3',5'-monophosphate(cAMP) levels, via inhibition of adenylyl cyclase. This is the basis of a common assay for SRIF agonists and antagonists, whereby SRIF agonists reduce artificially stimulated cAMP levels, and SRIF antagonists reverse the effect of SRIF. The rat pituitary tumor cell line GH4C1 predominantly expresses SSTR2, and responds to SRIF and to forskolin, a stimulator of adenylate cyclase (see C.M. Eppler, et al., J. Biol. Chem., 267, 15603-15612, 1992, incorporated herein by reference). […] This increases the response to SRIF and provides a greater dynamic range for the measurement of SRIF antagonist activity.
Stimulation of cells. GH4C1/SSTR2 cells, grown in DMEM with 10% bovine serum, are released from a tissue culture dish by incubation for several minutes at 37° C with PBS containing 0.5 mM EDTA. Cells are washed in induction buffer (PBS containing 100 µM IBMX (an inhibitor of cAMP breakdown) and 2 mM CaCl2) at room temperature, and resuspended at 2 x 10^6/mL in induction buffer. Into each well of a 96-well tray are added 50 µL of a 2 X concentration of stimulants in induction buffer. […] Baseline cAMP levels are determined in samples with no added forskolin or SRIF, and each treatment is performed in triplicate.
cAMP assay. […] The 96-well tray is sealed, shaken at room temperature overnight and measured for bound radioligand in a MicroBeta liquid scintillation counter (Wallac, Gaithersburg. MD). The standard curve is determined for each experiment by performing a nonlinear regression (exponential decay) analysis of cpm measured for the cAMP standards vs. their log concentrations, and test sample values are determined by using Prism software (Graphpad Software Inc., San Diego, CA) and are shown in Table II and Figure 1.
The intrinsic activity of an SRIF antagonist is the percent reversal of the SSTR2 activation by SRIF or MK678, wherein 0% is defined by cAMP levels in samples treated with forskolin plus SRIF or MK678 and 100% is the cAMP level measured after treatment with forskolin alone. […]

T2 sequence (P30680 whole entry): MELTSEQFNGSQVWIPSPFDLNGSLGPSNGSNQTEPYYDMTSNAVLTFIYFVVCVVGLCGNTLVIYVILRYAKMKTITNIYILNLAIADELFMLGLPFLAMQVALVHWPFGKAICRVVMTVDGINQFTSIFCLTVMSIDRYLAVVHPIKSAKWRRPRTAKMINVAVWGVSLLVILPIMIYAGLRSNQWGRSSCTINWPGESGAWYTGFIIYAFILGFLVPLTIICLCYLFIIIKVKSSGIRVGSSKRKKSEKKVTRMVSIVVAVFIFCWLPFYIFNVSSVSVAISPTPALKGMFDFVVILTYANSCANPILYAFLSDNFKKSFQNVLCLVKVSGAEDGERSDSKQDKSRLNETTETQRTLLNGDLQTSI
T1 sequence (P30680 whole entry): as above

Molecule: Ac-His-Phe-Ile-Arg-Trp-Met-NH2 (all D), Seq Id No. 24 (peptide)
- Inhibition Zone (mm), yeast bioassay for SRIF antagonist activity (LY364 cells growing on 10 nM S-14; 10 µL of 5 mg/mL peptide on a filter disk) [1]: 18 mm

Molecule: Ac-His-Phe-Ile-Arg-Trp-Trp-NH2 (all D), Seq Id No. 25 (peptide)
- Inhibition Zone (mm), yeast bioassay for SRIF antagonist activity (LY364 cells growing on 10 nM S-14; 10 µL of 5 mg/mL peptide on a filter disk) [1]: 16 mm

Molecule: Ac-His-Phe-Ile-Arg-Trp-Asn-NH2 (all D), Seq Id No. 23 (peptide)
- Inhibition Zone (mm), yeast bioassay for SRIF antagonist activity (LY364 cells growing on 10 nM S-14; 10 µL of 5 mg/mL peptide on a filter disk) [1]: 15 mm

Molecule: Ac-His-Phe-Ile-Arg-Trp-Thr-NH2 (all D), Seq Id No. 19 (peptide)
- Inhibition Zone (mm), yeast bioassay for SRIF antagonist activity (LY364 cells growing on 10 nM S-14; 10 µL of 5 mg/mL peptide on a filter disk) [1]: 14 mm

Molecule: h-f-v-r-w-f [Peptide 28]
- cAMP Assay Intrinsic activity (SSTR2 [2]): 71.2%
- Yeast Assay (mm) (SRIF receptors): 20 mm

Molecule: CC(C)[C@@H]1NC(=O)[C@H](CCCCN)NC(=O)[C@@H](Cc2c[nH]c3ccccc23)NC(=O)[C@H](Cc2ccc(O)cc2)NC(=O)[C@H](C)N(C)C(=O)[C@H](Cc2ccccc2)NC1=O [MK678]
- Maximum (SSTR2 [3]): 8.705
- Minimum (SSTR2 [3]): 2.775

Molecule: h-f-i-r-f [Peptide 11]
- cAMP Assay Intrinsic activity (SSTR2 [2]): 12.1%
- Yeast Assay (mm) (SRIF receptors): 14 mm

Molecule: w-y-i-r-w-f [Peptide 23]
- cAMP Assay Intrinsic activity (SSTR2 [2]): 5.64%
- Yeast Assay (mm) (SRIF receptors): none

Molecule: f-h-i-r-w-f [Peptide 24]
- cAMP Assay Intrinsic activity (SSTR2 [2]): 65.2%
- Yeast Assay (mm) (SRIF receptors): none

Molecule: w-h-i-r-w-f [Peptide 22]
- cAMP Assay Intrinsic activity (SSTR2 [2]): 27.4%
- Yeast Assay (mm) (SRIF receptors): none

Molecule: f-i-r-w-f [Peptide 7]
- cAMP Assay Intrinsic activity (SSTR2 [2]): -7.2%
- Yeast Assay (mm) (SRIF receptors): none

Molecule: h-y-i-r-w-f [Peptide 20]
- cAMP Assay Intrinsic activity (SSTR2 [2]): 56.5%
- Yeast Assay (mm) (SRIF receptors): 18 mm

Molecule: Ac-His-Phe-Ile-Arg-Trp-Gly-NH2 (D-amino acids) (peptide)
- Inhibition Zone (mm), yeast bioassay for SRIF antagonist activity (LY364 cells growing on 10 nM S-14; 10 µL of 5 mg/mL peptide on a filter disk) [1]: 13 mm

Molecule: H-f-i-r-w-f [Peptide 13]
- cAMP Assay Intrinsic activity (SSTR2 [2]): 26.2%
- Yeast Assay (mm) (SRIF receptors): 15 mm

Molecule: h-F-i-r-w-f [Peptide 14]
- cAMP Assay Intrinsic activity (SSTR2 [2]): 29.6%
- Yeast Assay (mm) (SRIF receptors): 16 mm

Molecule: Peptide 1, Ac-D-His-D-Phe-D-Ile-D-Arg-D-Trp-D-Phe-NH2
- Inhibition Zone (mm), yeast bioassay for SRIF antagonist activity (LY364 cells growing on 10 nM S-14; 10 µL of 5 mg/mL peptide on a filter disk) [1]: 18 mm

Molecule: h-a-i-r-w-f [Peptide 3]
- cAMP Assay Intrinsic activity (SSTR2 [2]): 9.33%
- Yeast Assay (mm) (SRIF receptors): none

Molecule: h-f-r-w-f [Peptide 9]
- cAMP Assay Intrinsic activity (SSTR2 [2]): 6.36%
- Yeast Assay (mm) (SRIF receptors): 9 mm

Molecule: a-f-i-r-w-f [Peptide 2]
- cAMP Assay Intrinsic activity (SSTR2 [2]): 13.0%
- Yeast Assay (mm) (SRIF receptors): none

Molecule: h-f-i-r-w [Peptide 12]
- cAMP Assay Intrinsic activity (SSTR2 [2]): 29.1%
- Yeast Assay (mm) (SRIF receptors): 16 mm

Molecule: Ac-His-Phe-Ile-Arg-Trp-Leu-NH2 (all D), Seq Id No. 18 (peptide)
- Inhibition Zone (mm), yeast bioassay for SRIF antagonist activity (LY364 cells growing on 10 nM S-14; 10 µL of 5 mg/mL peptide on a filter disk) [1]: 15 mm

Molecule: h-f-I-r-w-f [Peptide 15]
- cAMP Assay Intrinsic activity (SSTR2 [2]): 9.71%
- Yeast Assay (mm) (SRIF receptors): 9 mm

Molecule: Ac-His-Phe-Ile-Arg-Trp-Tyr-NH2 (all D), Seq Id No. 20 (peptide)
- Inhibition Zone (mm), yeast bioassay for SRIF antagonist activity (LY364 cells growing on 10 nM S-14; 10 µL of 5 mg/mL peptide on a filter disk) [1]: 16 mm

Molecule: Ac-His-Phe-Ile-Arg-Trp-Gln-NH2 (all D), Seq Id No. 26 (peptide)
- Inhibition Zone (mm), yeast bioassay for SRIF antagonist activity (LY364 cells growing on 10 nM S-14; 10 µL of 5 mg/mL peptide on a filter disk) [1]: 16 mm

Molecule: Ac-His-Phe-Ile-Arg-Trp-Ile-NH2 (all D), Seq Id No. 21 (peptide)
- Inhibition Zone (mm), yeast bioassay for SRIF antagonist activity (LY364 cells growing on 10 nM S-14; 10 µL of 5 mg/mL peptide on a filter disk) [1]: 16 mm

Molecule: h-f-i-r-a-f [Peptide 6]
- cAMP Assay Intrinsic activity (SSTR2 [2]): 13.4%
- Yeast Assay (mm) (SRIF receptors): 9 mm

Molecule: h-f-i-r-W-f [Peptide 17]
- cAMP Assay Intrinsic activity (SSTR2 [2]): 50.2%
- Yeast Assay (mm) (SRIF receptors): 19 mm

Molecule: Ac-His-Phe-Ile-Arg-Trp-Ala-NH2 (all D), Seq Id No. 22 (peptide)
- Inhibition Zone (mm), yeast bioassay for SRIF antagonist activity (LY364 cells growing on 10 nM S-14; 10 µL of 5 mg/mL peptide on a filter disk) [1]: 15 mm

Molecule: h-f-i-a-w-f [Peptide 5]
- cAMP Assay Intrinsic activity (SSTR2 [2]): 44.1%
- Yeast Assay (mm) (SRIF receptors): 10 mm
